{"source": "patent US12215389B2", "about": "“Compositions for detecting epigenetic modifications” (EXACT SCIENCES CORPORATION, priority 2007, dated 2025)", "system": "methylated gene promoters in plasma DNA", "experiment": "Real-time MSP on plasma DNA", "set-up": "species or system human", "conditions": "for % Specificity (all 59 controls), plasma set 1: plasma training set 1; for % Sensitivity adenomas plasma set 2: increased plasma equivalent of DNA per real-time MSP assay / % Specificity (all 89 controls), plasma set 2: increased plasma equivalent of DNA per real-time MSP assay: plasma training set 2", "experimental": "10 ml of blood was obtained per individual using EDTA Vacutainer™ tubes. Individuals with no suspicious findings, adenomas or carcinomas based on colonoscopy were enrolled in the present study. Within 4 hrs from the blood drawing, the plasma fraction was separated from the cell fraction by centrifugation at 1500 g for 15 min (4° C.). The plasma was transferred to new tubes and once again centrifuged (1500 g, 15 min, 4° C.), after which the supernatant was transferred to new tubes and stored at −80° C. until further use. Samples were shipped on dry ice.\nDNA isolation from plasma samples (1.2 to 6 ml) was performed using an upscaled phenol-chloroform DNA isolation method using the 15 ml of Heavy Phase lock Gel tubes (PLG tubes) (Eppendorf, cat #0032 005.152) or alternatively the ChargeSwitch® gDNA 1 ml serum kit from Invitrogen (cat #CS11040).\nPlasma samples were thawed and 1/10 volume of 10× buffer (240 mM EDTA (pH=8.0), 750 mM NaCl), 1/10 volume of 10% SDS and 5 μl of Proteinase K (20 mg/ml stock solution) per 1 ml of sample (e.g. 15 μl for 3 ml of sample) was added to each plasma sample. This mixture was incubated overnight at 48° C. at constant shaking (200 RPM).\nSubsequently the PLG tube was centrifuged at 2500 RCF for 3 min, sample mixture and approximately the same volume of phenol/chloroform (Invitrogen, cat #15593049) were added to it. This solution was briefly vortexed, mixed for 10 min using a tube rocker at room temperature and centrifuged for 5 min at 2500 RCF. In case the retrieved sample volume was ≤4 ml, an equal volume of phenol/chloroform was added. The upper aqueous layer was phenol/chloroform-treated for a second time.\nDNA was precipated from the upper aqueous layer by adding 5 μl glycogen, 1/10 volume of 7.5 M Ammonium Acetate and 2-2.5 volumes of cold (−20° C.) 100% ethanol. Tubes were gently inverted and incubated at −20° C. for at least 1 h, followed by a centrifugation step at 17000 RCF for 30 min (4° C.). Ethanol was carefully removed by pipetting. Pellets were washed with 2 ml freshly prepared 70% ethanol, vortexed gently and submitted to a centrifugation step at 17000 RCF for 15 min at 4° C. After careful removal of the remaining ethanol, pellets were air dried and resuspended in 45 μl of LoTE pH 8.0. The isolated DNA is stored at −80° C. until further processing.\nThe complete content of DNA isolated in above procedure was subjected to sodium bisulfite treatment (BT) using the EZ-96 DNA Methylation kit from Zymo Research (Cat #D5003) performed on a pipetting robot (Tecan Freedom EVOII, Roma, Liha, Mca, Te-Vacs). Briefly, 45 μl of plasma DNA sample was mixed with 5 μl of M-Dilution Buffer (provided in kit) and incubated at 37° C. for 15 min shaking at 1100 RPM. This mixture was further incubated with 100 μl of diluted CT conversion reagent (provided in kit) shaking at 70° C. for 3 hours (protected from light). Subsequently the modified DNA was desalted and desulfonated according to manufacturer's instructions and eluted in either 40 μl or 20 μl of Tris-HCl 1 mM pH8.0, depending on the applied concentration procedure. The eluted material was stored at −80° C. until further processing.\n2.4 μl of the modified DNA was added to a PCR mix (total volume 12 μl) containing home-made buffer solution (final concentrations are summarized: 16.6 mM (NH4)2SO4, 67 mM Tris (pH 8.8), 6.7 mM MgCl2, 10 mM β-mercaptoethanol), dNTPs (5 mM; Amersham Biosciences cat #27-2035-02), methylation specific forward primer (6 ng), methylation specific reverse primer (18 ng), molecular beacon (0.16 μM) and Jumpstart DNA Taq polymerase (0.4 units; Sigma Cat #D9307).\nA standard curve was included (9.6×10^5—9.6 copies) to determine copy numbers of unknown samples by interpolation of their Ct values to the standard curve.\nDNA was isolated following the upscaled phenol-chloroform procedure; subsequently the whole DNA sample was modified as described above.", "data": [{"substance": "GATA5 (DNA AGTTCGTTTTTAGGTTAGTTTTCGGC; listed as DNA, chemistry not given here)", "values": [{"measurement": "% Specificity (all 59 controls), plasma set 1", "result": 97, "unit": "%"}, {"measurement": "% Sensitivity adenomas plasma set 2: increased plasma equivalent of DNA per real-time MSP assay", "result": 6, "unit": "%"}, {"measurement": "% Specificity (all 89 controls), plasma set 2: increased plasma equivalent of DNA per real-time MSP assay", "result": 99, "unit": "%"}]}, {"substance": "SFRP1 (DNA TGTAGTTTTCGGAGTTAGTGTCGCGC; listed as DNA, chemistry not given here)", "values": [{"measurement": "% Specificity (all 59 controls), plasma set 1", "result": 98, "unit": "%"}, {"measurement": "% Sensitivity adenomas plasma set 2: increased plasma equivalent of DNA per real-time MSP assay", "result": 2, "unit": "%"}, {"measurement": "% Specificity (all 89 controls), plasma set 2: increased plasma equivalent of DNA per real-time MSP assay", "result": 96, "unit": "%"}]}]}
